The subject of test [1] is Phytophthora infestans. The format is in vivo. The note with it: 125 ppm, 200 L/10 a spray on tomato (5 leaf stage), inoculated next day; diseased area rates of third to fifth true leaves after 3 days in green house, graded by Table 5.
Test [2] concerns Pseudoperonospora cubensis. Kind of test: Effect test for cucumber downy mildew (Evaluation Example 4). The format is in vivo. The note with it: 125 ppm, 200 L/10 a spray on cucumber (3 leaf stage), inoculated next day; diseased area rates of first and second true leaves after 3 days in green house, graded by Table 5. On the procedure: The active ingredient compound was diluted with water containing 0.01% Tween 20 to have a concentration of 125 ppm. […] Next day, a zoosporangium suspension of Pseudoperonospora cubensis which was the causative fungus of cucumber downy mildew was sprayed to inoculate.

Test [3] concerns Pyricularia oryzae. It is filed as in vivo. The note with it: 200 ppm spray on rice (Koshihikari, 3 leaf stage), inoculated next day; lesion numbers on third leaves after 7 days in green house, graded by Table 5.
Test [4] deals with Colletotrichum lagenarium. The note with it: 200 ppm spray on cucumber (3 leaf stage), inoculated next day; lesion numbers on first and second leaves after 7 days in green house, graded by Table 5.

The values that follow come from patent US20050171358A1 (priority 2002, published 2005).

SMILES strings stand for the structures.

Regarding `COc1ccc(C(=O)NCc2cc(CN3Cc4ccccc4C3)no2)cc1`, the “Evaluation (effect for tomato late blight)” value in test [1] is 1 (21˜41).
For the compound `O=C(COc1ccccc1)NCc1cc(CCl)no1` [I-65, N-[(3-chloromethyl-5-isoxazolyl)methyl]phenoxyacetamide], the “Evaluation (effect for tomato late blight)” value in test [1] is reported as 4 (1˜5). For the same compound, the “Evaluation (effect for cucumber downy mildew)” value in test [2] is reported as 2 (11˜20).
Turning to `O=C(Cc1ccccc1)NCc1cc(CCl)no1` [I-67, N-[(3-chloromethyl-5-isoxazolyl)methyl]phenylacetamide], in test [1], the “Evaluation (effect for tomato late blight)” value is recorded as 2 (11˜20).
As for `O=C(NCc1cc(CCl)no1)NC1CCCCC1` [II-105, 3-(3-chloromethyl-5-isoxazolyl)methyl-1-cyclohexylurea], the “Evaluation (effect for tomato late blight)” value in test [1] is on record as 5 (0). For the same compound, in test [3], the “Evaluation (effect for rice blast)” value was 2 (11˜20). Also, the “Evaluation (effect for cucumber downy mildew)” value in test [2] is recorded as 4 (1˜5).
Regarding `O=C(NCc1cc(CCl)no1)NC1CCCC1` [II-107, 3-(3-chloromethyl-5-isoxazolyl)methyl-1-cyclopentylurea], the “Evaluation (effect for tomato late blight)” value in test [1] is recorded as 4 (1˜5). In addition, the “Evaluation (effect for cucumber downy mildew)” value in test [2] was 2 (11˜20).
Take `O=C(NCc1cc(CBr)no1)NC1CCCCC1` [II-111, 3-(3-bromomethyl-5-isoxazolyl)methyl-1-cyclohexylurea]: the “Evaluation (effect for tomato late blight)” value in test [1] is on record as 5 (0). Besides, the “Evaluation (effect for cucumber downy mildew)” value in test [2] is on record as 3 (6˜10).
For the compound `O=C(NCc1cc(CI)no1)NC1CCCCC1` [II-115, 3-(3-iodomethyl-5-isoxazolyl)methyl-1-cyclohexylurea], the “Evaluation (effect for tomato late blight)” value in test [1] is reported as 3 (6˜10). Besides, the “Evaluation (effect for rice blast)” value in test [3] is given as 3 (6˜10). The “Evaluation (effect for cucumber downy mildew)” value in test [2] was 1 (21˜41). Moreover, the “Evaluation (effect for cucumber anthracnose)” value in test [4] was 2 (11˜20).
Take `Cc1ccc(C(=O)NCc2cc(CCl)no2)cc1` [III-2, N-[(3-chloromethyl-5-isoxazolyl)methyl]-4-methylbenzamide]: the “Evaluation (effect for tomato late blight)” value in test [1] is 5 (0). In test [3], the “Evaluation (effect for rice blast)” value was 4 (1˜5). For the same compound, in test [2], the “Evaluation (effect for cucumber downy mildew)” value was 5 (0). In addition, the “Evaluation (effect for cucumber anthracnose)” value in test [4] is 4 (1˜5).
Take `COc1ccc(C(=O)NCc2cc(CCl)no2)cc1` [III-3, N-[(3-chloromethyl-5-isoxazolyl)methyl]-4-methoxy benzamide]: the “Evaluation (effect for tomato late blight)” value in test [1] is listed as 2 (11˜20). The “Evaluation (effect for cucumber downy mildew)” value in test [2] was 4 (1˜5).
Consider `Cc1ccc(-c2cc(CNC(=O)N3CCOCC3)on2)cc1` [III-204, N-{[3-(4-tolyl)-5-isoxazolyl]methyl}-4-morpholinecarboxamide], for which, in test [3], the “Evaluation (effect for rice blast)” value was 2 (11˜20). Besides, the “Evaluation (effect for cucumber downy mildew)” value in test [2] is on record as 4 (1˜5). Further, the “Evaluation (effect for cucumber anthracnose)” value in test [4] is 2 (11˜20).
With `Cc1ccc(-c2cc(CNC(=O)C3CCCCC3)on2)cc1` [III-222, N-{[3-(4-tolyl)-5-isoxazolyl]methyl}cyclohexanecarboxamide], the “Evaluation (effect for rice blast)” value in test [3] is given as 3 (6˜10). Further, in test [2], the “Evaluation (effect for cucumber downy mildew)” value is listed as 4 (1˜5). Moreover, in test [4], the “Evaluation (effect for cucumber anthracnose)” value was 2 (11˜20).
Turning to `O=C(NCc1cc(CCl)no1)c1ccccc1` [III-226, N-[(3-chloromethyl-5-isoxazolyl)methyl]benzamide], the “Evaluation (effect for tomato late blight)” value in test [1] is on record as 3 (6˜10). In addition, the “Evaluation (effect for cucumber downy mildew)” value in test [2] is 4 (1˜5).
Consider `O=C(NCc1cc(CCl)no1)C1CCCCC1` [III-233, N-[(3-chloromethyl-5-isoxazolyl)methyl]cyclohexanecarboxamide], for which, in test [1], the “Evaluation (effect for tomato late blight)” value is on record as 2 (11˜20).
As to `O=C(NCc1cc(CCl)no1)c1ccc(Cl)cc1` [III-254, N-[(3-chloromethyl-5-isoxazolyl)methyl]-4-chlorobenzamide], the “Evaluation (effect for tomato late blight)” value in test [1] is 5 (0). In addition, in test [2], the “Evaluation (effect for cucumber downy mildew)” value is given as 3 (6˜10).
Regarding `O=C(NCc1cc(CCl)no1)c1ccc(Br)cc1` [III-260, N-[(3-chloromethyl-5-isoxazolyl)methyl]-4-bromobenzamide], the “Evaluation (effect for tomato late blight)” value in test [1] is listed as 3 (6˜10).
Regarding `O=C(NCc1cc(CCl)no1)c1ccc(C(F)(F)F)cc1` [III-261, N-[(3-chloromethyl-5-isoxazolyl)methyl]-4-trifluoromethylbenzamide], in test [1], the “Evaluation (effect for tomato late blight)” value is listed as 2 (11˜20).
Consider `O=C(C=Cc1ccccc1)NCc1cc(CCl)no1` [III-266, N-[(3-chloromethyl-5-isoxazolyl)methyl]-β-phenylacrylamide], for which the “Evaluation (effect for tomato late blight)” value in test [1] is reported as 1 (21˜41).
In the case of `O=C(NCc1cc(CCl)no1)c1ccc2ccccc2c1` [III-267, N-[(3-chloromethyl-5-isoxazolyl)methyl]-2-naphthalenecarboxamide], the “Evaluation (effect for tomato late blight)” value in test [1] is 5 (0). The “Evaluation (effect for cucumber downy mildew)” value in test [2] is 5 (0).
`O=C(NCc1cc(CCl)no1)c1cccc2ccccc12` [III-268, N-[(3-chloromethyl-5-isoxazolyl)methyl]-1-naphthalenecarboxamide]: the “Evaluation (effect for tomato late blight)” value in test [1] is on record as 0 (41 or more).
On to `CCc1ccc(C(=O)NCc2cc(CCl)no2)cc1` [III-269, N-[(3-chloromethyl-5-isoxazolyl)methyl]-4-ethylbenzamide], for which, in test [1], the “Evaluation (effect for tomato late blight)” value is recorded as 5 (0). In addition, in test [2], the “Evaluation (effect for cucumber downy mildew)” value is 5 (0).
Turning to `O=C(NCc1cc(CCl)no1)c1ccc(OCCl)cc1` [III-270, N-[(3-chloromethyl-5-isoxazolyl)methyl]-4-chloromethyloxybenzamide], the “Evaluation (effect for tomato late blight)” value in test [1] is given as 2 (11˜20).
In the case of `O=C(NCc1cc(CCl)no1)c1ccc(Cl)cc1Cl` [III-271, N-[(3-chloromethyl-5-isoxazolyl)methyl]-2,4-dichlorobenzamide], the “Evaluation (effect for tomato late blight)” value in test [1] is on record as 1 (21˜41).
`O=C(NCc1cc(CCl)no1)c1ccc(Cl)c(Cl)c1` [III-272, N-[(3-chloromethyl-5-isoxazolyl)methyl]-3,4-dichlorobenzamide]: the “Evaluation (effect for tomato late blight)” value in test [1] is recorded as 5 (0). In addition, the “Evaluation (effect for cucumber downy mildew)” value in test [2] is on record as 3 (6˜10).
Turning to `Cc1ccccc1C(=O)NCc1cc(CCl)no1` [III-273, N-[(3-chloromethyl-5-isoxazolyl)methyl]-2-methylbenzamide], the “Evaluation (effect for tomato late blight)” value in test [1] is recorded as 0 (41 or more).
For the compound `Cc1cccc(C(=O)NCc2cc(CCl)no2)c1` [III-274, N-[(3-chloromethyl-5-isoxazolyl)methyl]-3-methylbenzamide], the “Evaluation (effect for tomato late blight)” value in test [1] is on record as 4 (1˜5). Moreover, the “Evaluation (effect for cucumber downy mildew)” value in test [2] is reported as 2 (11˜20).
On the same counts, the results for `O=C(NCc1cc(CCl)no1)c1cccc(Cl)c1` [III-277, N-[(3-chloromethyl-5-isoxazolyl)methyl]-3-chlorobenzamide] are 4 (1˜5) and 2 (11˜20).
Take `O=C(NCc1cc(CCl)no1)c1ccc([N+](=O)[O-])cc1` [III-278, N-[(3-chloromethyl-5-isoxazolyl)methyl]-4-nitrobenzamide]: in test [1], the “Evaluation (effect for tomato late blight)” value is given as 4 (1˜5). For the same compound, the “Evaluation (effect for cucumber downy mildew)” value in test [2] was 2 (11˜20).
In the same order, the values of `CS(=O)(=O)c1ccc(C(=O)NCc2cc(CCl)no2)c(Cl)c1` [III-279, N-[(3-chloromethyl-5-isoxazolyl)methyl]-2-chloro-4-methanesulfonylbenzamide] are 5 (0) and 3 (6˜10).
As to `COc1ccc(C(=O)NCc2cc(C(=O)NC3CCCC3)no2)cc1` [IV-120, N-[(3-cyclopentylaminocarbonyl-5-isoxazolyl)methyl]-4-methoxybenzamide], the “Evaluation (effect for rice blast)” value in test [3] is given as 3 (6˜10). Besides, in test [4], the “Evaluation (effect for cucumber anthracnose)” value is on record as 2 (11˜20).
On the same counts, the results for `O=C(NCc1cc(COc2ccccc2)no1)C1CCCCC1` [IV-121, N-[(3-phenoxymethyl-5-isoxazolyl)methyl)cyclohexanecarboxamide] are 4 (1˜5) and 4 (1˜5).
On the same counts, the results for `O=C(NCc1cc(COc2ccccc2)no1)c1cc(Cl)nc(Cl)c1` [IV-122, N-[(3-phenoxymethyl-5-isoxazolyl)methyl]-2,6-dichloropyridine-4-carboxamide] are 3 (6˜10) and 2 (11˜20).
On the same counts, the results for `COc1ccc(C(=O)NCc2cc(/C=N/OCc3ccccc3)no2)cc1` [IV-124, N-[(3-benzyloxyiminomethyl-5-isoxazolyl)methyl]-4-methoxybenzamide] are 5 (0) and 5 (0).
